Key:
dog [1] = settings: Subchronic oral toxicity in nonrodent, beagle, Capsule, dose end: 13 week, group: systemic
mouse [2] = settings: Carcinogenicity, cd1, Oral, Feed, dose end: 78 week, group: systemic
rat [3] = settings: Prenatal developmental toxicity study, sprague dawley, Oral, Gavage/Intubation, dose end: 15 GD
rabbit = settings: Prenatal developmental toxicity study, himalayan, Dermal, Topical, dose end: 19 GD
rat [4] = settings: Subchronic oral toxicity in rodents, other, Feed, dose end: 13 week
rat [5] = settings: Combined chronic toxicity/carcinogenicity, sprague dawley, Oral, Feed, dose end: 104 week, group: systemic
mouse [6] = settings: Subchronic oral toxicity in rodents, cd1, Feed, dose end: 13 week, group: systemic
rat [7] = settings: Multigenerational reproductive toxicity study, sprague dawley, Oral, Feed, dose end: 2 generation
dog [8] = settings: Chronic toxicity; beagle; Oral; Capsule; dose end: 1 year; group: systemic; systemic / in life observation / body weight / body weight gain + systemic / in life observation / clinical signs / emesis + systemic / in …
dog [9] = settings: Chronic toxicity; beagle; Oral; Capsule; dose end: 1 year; group: systemic; systemic / in life observation / body weight / body weight gain + systemic / in life observation / clinical signs / emesis + systemic / in …; remark: listed apart in the source
[10] = systemic / in life observation / body weight / body weight gain + systemic / in life observation / clinical signs / emesis + systemic / in …
[11] = systemic / in life observation / clinical signs / soft stools + systemic / in life observation / food consumption / food consumption
[12] = systemic / in life observation / body weight / body weight gain + systemic / in life observation / food consumption / food efficiency + …
[13] = systemic / organ weight / brain / relative to body weight
[14] = group: developmental, developmental / developmental malformation / bone / incomplete ossification + systemic / in life observation / body weight / fetal weight
[15] = group: maternal, systemic / in life observation / body weight / body weight gain + systemic / in life observation / food consumption / food consumption
[16] = group: maternal, systemic / in life observation / body weight / body weight gain + systemic / in life observation / food consumption / food consumption + …
[17] = group: developmental, developmental / developmental malformation / bone / incomplete ossification
[18] = group: maternal, systemic / in life observation / clinical signs / erythema + systemic / in life observation / clinical signs / scabbing + systemic / …
[19] = group: cholinesterase, cholinesterase / cholinesterase / cholinesterase / cholinesterase (che)
[20] = group: systemic, systemic / clinical chemistry / urea nitrogen / urea nitrogen
[21] = systemic / clinical chemistry / alanine aminotransferase (alt/sgpt) / alanine aminotransferase (alt/sgpt) + systemic / in life observation…
[22] = systemic / clinical chemistry / glucose / glucose
[23] = group: offspring, systemic / in life observation / body weight / offspring (pup) weight
[24] = group: parental, systemic / in life observation / body weight / body weight + systemic / in life observation / body weight / body weight gain + systemic / in…

Structure (SMILES): CC(C)(C)c1ccc(CSc2cnn(C(C)(C)C)c(=O)c2Cl)cc1 [Pyridaben]
- LOAEL (dog [1]; [10]): 4 mg/kg/day
- NOAEL (dog [1]; [10]): 1 mg/kg/day
- LEL (dog [1]; [11]): 0.5 mg/kg/day
- NEL (dog [1]; [11]): < 0.5 mg/kg/day
- LOAEL (mouse [2]; [12]): 8.88 mg/kg/day
- NOAEL (mouse [2]; [12]): 2.78 mg/kg/day
- LEL (mouse [2]; [13]): 0.26 mg/kg/day
- NEL (mouse [2]; [13]): < 0.26 mg/kg/day
- LEL (rat [3]; [14]): 30 mg/kg/day
- LOAEL (rat [3]; [14]): 30 mg/kg/day
- NEL (rat [3]; [14]): 13 mg/kg/day
- NOAEL (rat [3]; [14]): 13 mg/kg/day
- LEL (rat [3]; [15]): 13 mg/kg/day
- LOAEL (rat [3]; [15]): 13 mg/kg/day
- NEL (rat [3]; [16]): 5.7 mg/kg/day
- NOAEL (rat [3]; [16]): 5.7 mg/kg/day
- LEL (rabbit; [17]): 450 mg/kg/day
- LOAEL (rabbit; [17]): 450 mg/kg/day
- NEL (rabbit; [17]): 170 mg/kg/day
- NOAEL (rabbit; [17]): 170 mg/kg/day
- LEL (rabbit; [18]): 70 mg/kg/day
- LOAEL (rabbit; [18]): 70 mg/kg/day
- NEL (rabbit; [18]): < 70 mg/kg/day
- NOAEL (rabbit; [18]): < 70 mg/kg/day
- LEL (rat [4]; [19]): 27.7 mg/kg/day
- LOAEL (rat [4]; [19]): > 27.7 mg/kg/day
- NEL (rat [4]; [19]): 12.8 mg/kg/day
- NOAEL (rat [4]; [19]): ≥ 27.7 mg/kg/day
- LEL (rat [4]; [20]): 2.3 mg/kg/day
- NEL (rat [4]; [20]): < 2.3 mg/kg/day
- LOAEL (rat [4]; group: systemic, systemic / in life observation / body weight / body weight gain + systemic / in life observation / food consumption / food efficiency): 5.53 mg/kg/day
- NOAEL (rat [4]; group: systemic, systemic / in life observation / body weight / body weight gain + systemic / in life observation / food consumption / food efficiency + …): 2.64 mg/kg/day
- LOAEL (rat [5]; [21]): 5 mg/kg/day
- NEL (rat [5]; [21]): 0.4 mg/kg/day
- LEL (rat [5]; systemic / urinalysis / volume / volume): 1.13 mg/kg/day
- LEL (mouse [6]; [22]): 4.07 mg/kg/day
- NEL (mouse [6]; [22]): < 4.07 mg/kg/day
- LOAEL (mouse [6]; systemic / in life observation / body weight / body weight gain): 13 mg/kg/day
- NOAEL (mouse [6]; systemic / in life observation / body weight / body weight gain + systemic / clinical chemistry / alkaline phosphatase (alp/alk) / alkaline …): 4.07 mg/kg/day
- LEL (rat [7]; [23]): 6.31 mg/kg/day
- LOAEL (rat [7]; [23]): > 6.31 mg/kg/day
- NEL (rat [7]; [23]): 2.2 mg/kg/day
- NOAEL (rat [7]; [23]): ≥ 6.31 mg/kg/day
- LOAEL (rat [7]; [24]): 6.31 mg/kg/day
- NOAEL (rat [7]; [24]): 2.2 mg/kg/day
- LEL (rat [7]; group: parental, systemic / organ weight / ovary / absolute): 2.41 mg/kg/day
- NEL (rat [7]; group: parental, systemic / organ weight / ovary / absolute + systemic / in life observation / body weight / body weight + systemic / in life observation / …): 0.94 mg/kg/day
- LEL (dog [8]): 0.5 mg/kg/day
- LOAEL (dog [8]): 0.5 mg/kg/day
- NEL (dog [8]): < 0.5 mg/kg/day
- NOAEL (dog [8]): < 0.5 mg/kg/day
- LEL (dog [9]): 1 mg/kg/day
- LOAEL (dog [9]): 1 mg/kg/day
- NEL (dog [9]): < 1 mg/kg/day
- NOAEL (dog [9]): < 1 mg/kg/day
